Results taken from article PMC5576140 (Antiviral research, 2017).
In brackets after ≈: the same amount, converted by molar mass. Where two headings read alike, the source gives them in different places.

Key:
[1] = test system: HIV-1 X4LAI.04; test: HIV-1 inhibition in MT-4 cell cultures; assay type: cell-based; settings: read-out: EC50 (MT-4)
[2] = Viability assay in MT-4 cell cultures; assay type: cell-based; settings: human, MT-4 cells
[3] = test system: M. tuberculosis MS-115; test: Anti-TB activity, growth in Middlebrook 7H9 medium, BACTEC MGIT960; assay type: cell-based; settings: clinical MDR strain
[4] = assay type: in vitro ADME; settings: for hydrolysis products found in human blood serum: HPLC-HRMS; for stability in human blood serum: 15 h
[5] = test system: M. tuberculosis H37Rv; test: Anti-TB activity, growth in Middlebrook 7H9 medium, BACTEC MGIT960; assay type: cell-based; settings: growth inhibition not less than 99%
[6] = Chemical stability at pH 2.2, 7.4 and 9.0; assay type: physicochemical; settings: pH 9.0 (glycine+NaOH)
[7] = growth inhibition not less than 99%
[8] = value in brackets, same MIC in μM
[9] = MT-4 cell cultures, HIV-1 X4LAI.04, 3 days, p24gag

## Cc1cn([C@H]2C[C@H](N=[N+]=[N-])[C@@H](CO)O2)c(=O)[nH]c1=O [AZT, 3′-azido-3′-deoxythymidine, reference compound]
[1]; Human immunodeficiency virus 1, MT4, 72 h
  EC50: 30 nM
[2]
  CC50: > 100000 nM

## CCCCCCCCCCc1cn(Cc2cn([C@H]3C[C@H](O)[C@@H](COC(=O)OC[C@H]4O[C@@H](n5cc(C)c(=O)[nH]c5=O)C[C@@H]4N=[N+]=[N-])O3)c(=O)[nH]c2=O)nn1 [Compound 1, 5′-O-[AZT-carbonyl]-5-[(4-decyl-1,2,3-triazol-1-yl)methyl]-2′-deoxyuridine]
[3]; [7]
  MIC (99) M.tuberculosis MS-115: 50 µg/mL
[3]; [8]
  MIC (99) M.tuberculosis MS-115: 67 µM
[1]; [9]
  EC50: 390 nM
[4]
  hydrolysis products found in human blood serum: both AZT and dU^R derivative
[5]
  MIC (99) M.tuberculosis H37Rv: 50 µg/mL (≈ 67.3 µM)

## CCCCCCCCCCc1cn(Cc2cn([C@H]3C[C@H](OC(=O)OC[C@H]4O[C@@H](n5cc(C)c(=O)[nH]c5=O)C[C@@H]4N=[N+]=[N-])[C@@H](CO)O3)c(=O)[nH]c2=O)nn1 [Compound 2, 3′-O-[AZT-carbonyl]-5-[(4-decyl-1,2,3-triazol-1-yl)methyl]-2′-deoxyuridine]
[3]; [7]
  MIC (99) M.tuberculosis MS-115: 20 µg/mL
[3]; [8]
  MIC (99) M.tuberculosis MS-115: 27 µM
[1]; [9]
  EC50: 70 nM
[4]
  hydrolysis products found in human blood serum: both AZT and dU^R derivative
[5]
  MIC (99) M.tuberculosis H37Rv: 10 µg/mL (≈ 13.5 µM)

## CCCCCCCCCCc1cn(Cc2cn([C@H]3C[C@H](OC(=O)OC[C@H]4O[C@@H](n5cc(C)c(=O)[nH]c5=O)C[C@@H]4N=[N+]=[N-])[C@@H](COC(=O)OC[C@H]4O[C@@H](n5cc(C)c(=O)[nH]c5=O)C[C@@H]4N=[N+]=[N-])O3)c(=O)[nH]c2=O)nn1 [Compound 3, 3′,5′-di-O-[AZT-carbonyl]-5-[(4-decyl-1,2,3-triazol-1-yl)methyl]-2′-deoxyuridine]
[3]; [7]
  MIC (99) M.tuberculosis MS-115: 10 µg/mL
[3]; [8]
  MIC (99) M.tuberculosis MS-115: 9.7 µM
[1]; [9]
  EC50: 80 nM
[4]
  hydrolysis products found in human blood serum: 1, 2, AZT, and dU^R
[5]
  MIC (99) M.tuberculosis H37Rv: 20 µg/mL (≈ 19.3 µM)

## CCCCOc1ccc(Nc2cn(C3C=CC(O)C3)c(=O)n(CCCn3c(=O)c(C)cn(C4CC(N=[N+]=[N-])C(CO)O4)c3=O)c2=O)cc1 (stereo not drawn) [Compound 5, [AZT]-N3-propyl-N3-[1-N-(4′-hydroxycyclopent-2′-enyl)-5-(p-butoxyphenylamino)]uracil]
[3]; [7]
  MIC (99) M.tuberculosis MS-115: 50 µg/mL
[3]; [8]
  MIC (99) M.tuberculosis MS-115: 75 µM
[1]; [9]
  EC50: 12900 nM
[6]
  stability to chemical hydrolysis: stable
[4]
  stability in human blood serum: stable
[5]
  MIC (99) M.tuberculosis H37Rv: > 50 µg/mL

## Cc1cn([C@H]2C[C@H](O)[C@@H](COP(=O)(O)O)O2)c(=O)[nH]c1=O [TMP, reference compound]
[4]
  T1/2 in human blood serum: 20 min

## [AZT]-N3-propyl-N3-[1-N-[4′-(o,o-dimethylbenzyl)cyclopent-2′-enyl]uracil] [Compound 4]
[1]; [9]
  EC50: 19800 nM
[6]
  stability to chemical hydrolysis: stable
[4]
  stability in human blood serum: only slight debenzoylation at the carbocyclic fragment
